Legend:
human mGluR5 = human mGluR5 (Homo sapiens, UniProt P41594); assay: Cell-based functional Ca2+ mobilization assay, potentiation of glutamate EC20 response (H10H cell-line); settings: H10H cell-line expressing recombinant human mGluR5; for Emax / Emax (%): in presence of glutamate EC20, normalized to maximal glutamate response; for EC50 / pEC50: potentiation in presence of glutamate EC20
Protocol: Human embryonic kidney (HEK) cells transfected with rat mGluR5 were plated in clear bottom assay plates for assay in a Functional Drug Screening System (FDSS). In the alternative assay, HEK cells transfected with human mGluR5 were plated for assay in the FDSS. In some cases the HEK cells transfected with human mGluR5 are the H10H cell line. Alternatively, the HEK cells transfected with human mGluR5 are the H12H cell line. […] The cells were loaded with a Ca^2+-sensitive fluorescent dye (e.g., Fluo-4), and the plates were washed and placed in the FDSS instrument. After establishment of a fluorescence baseline for about three seconds, the compounds of the present invention were added to the cells, and the response in cells was measured. Five minutes later, an mGluR5 agonist (e.g., glutamate, 3,5-dihydroxyphenylglycine, or quisqualate) was added to the cells, and the response of the cells was measured. Potentiation of the agonist response of mGluR5 by the compounds in the present invention was observed as an increase in response to non-maximal concentrations of agonist (here, glutamate) in the presence of compound compared to the response to agonist in the absence of compound.
The above described assay can be operated in two modes. In the first mode, a range of concentrations of the present compounds were added to cells, followed by a single fixed concentration of agonist. If a compound acted as a potentiator, an EC50 value for potentiation and a maximum extent of potentiation by the compound at this concentration of agonist was determined by non-linear curve fitting. In the second mode, several fixed concentrations of the present compounds were added to various wells on a plate, followed by a range of concentrations of agonist for each concentration of present compound; the EC50 values for the agonist at each concentration of compound were determined by non-linear curve fitting. A decrease in the EC50 value of the agonist with increasing concentrations of the present compounds (a leftward shift of the agonist concentration-response curve) is an indication of the degree of mGluR5 potentiation at a given concentration of the present compound. An increase in the EC50 value of the agonist with increasing concentrations of the present compounds (a rightward shift of the agonist concentration-response curve) is an indication of the degree of mGluR5 antagonism at a given concentration of the present compound. The second mode also indicates whether the present compounds also affect the maximum response to mGluR5 to agonists.
Human mGluR5a cDNA in pCMV6-XL6 mammalian expression plasmid was purchased from OriGene Technologies, Inc. (catalogue number SC326357) and subcloned into pcDNA3.1(−). Human embryonic kidney (HEK) 293A cells were then transfected with human mGluR5a pcDNA3.1(−) using LipofectAmine 2000 (Invitrogen) and monoclones were selected and tested for functional response using a Ca^2+ mobilization assay. Monoclones were named for the species (“H” for human) plus the location on the plate (e.g. “10H”).
HEK cells transfected with the human mGluR5a receptor were plated at 15,000 cells/well in clear-bottomed poly-D-lysine-coated assay plates (BD Falcon) in glutamate-glutamine-free growth medium and incubated overnight at 37° C. and 5% CO2. The cell-line used to obtain the data reported herein was the H10H cell-line expressing the human mGluR5 receptor. Although the H10H cell-line was used to obtain the data shown herein, the H12H cell-line expressing the human mGluR5 receptor can also be used in these assays. The following day, the growth medium was removed and the cells were washed with assay buffer containing 1× Hank's balanced salt solution (Invitrogen, Carlsbad, Calif.), 20 mM HEPES, 2.5 mM probenecid, pH 7.4 and left with 20 μL of this reagent. Following this step, the cells were loaded with calcium indicator dye, fluo-4 AM, to a final concentration of 2 μM and incubated for 40-45 min at 37° C. […]

Chain of human mGluR5 (P41594 21-1180 isoform P41594-2 limits assumed): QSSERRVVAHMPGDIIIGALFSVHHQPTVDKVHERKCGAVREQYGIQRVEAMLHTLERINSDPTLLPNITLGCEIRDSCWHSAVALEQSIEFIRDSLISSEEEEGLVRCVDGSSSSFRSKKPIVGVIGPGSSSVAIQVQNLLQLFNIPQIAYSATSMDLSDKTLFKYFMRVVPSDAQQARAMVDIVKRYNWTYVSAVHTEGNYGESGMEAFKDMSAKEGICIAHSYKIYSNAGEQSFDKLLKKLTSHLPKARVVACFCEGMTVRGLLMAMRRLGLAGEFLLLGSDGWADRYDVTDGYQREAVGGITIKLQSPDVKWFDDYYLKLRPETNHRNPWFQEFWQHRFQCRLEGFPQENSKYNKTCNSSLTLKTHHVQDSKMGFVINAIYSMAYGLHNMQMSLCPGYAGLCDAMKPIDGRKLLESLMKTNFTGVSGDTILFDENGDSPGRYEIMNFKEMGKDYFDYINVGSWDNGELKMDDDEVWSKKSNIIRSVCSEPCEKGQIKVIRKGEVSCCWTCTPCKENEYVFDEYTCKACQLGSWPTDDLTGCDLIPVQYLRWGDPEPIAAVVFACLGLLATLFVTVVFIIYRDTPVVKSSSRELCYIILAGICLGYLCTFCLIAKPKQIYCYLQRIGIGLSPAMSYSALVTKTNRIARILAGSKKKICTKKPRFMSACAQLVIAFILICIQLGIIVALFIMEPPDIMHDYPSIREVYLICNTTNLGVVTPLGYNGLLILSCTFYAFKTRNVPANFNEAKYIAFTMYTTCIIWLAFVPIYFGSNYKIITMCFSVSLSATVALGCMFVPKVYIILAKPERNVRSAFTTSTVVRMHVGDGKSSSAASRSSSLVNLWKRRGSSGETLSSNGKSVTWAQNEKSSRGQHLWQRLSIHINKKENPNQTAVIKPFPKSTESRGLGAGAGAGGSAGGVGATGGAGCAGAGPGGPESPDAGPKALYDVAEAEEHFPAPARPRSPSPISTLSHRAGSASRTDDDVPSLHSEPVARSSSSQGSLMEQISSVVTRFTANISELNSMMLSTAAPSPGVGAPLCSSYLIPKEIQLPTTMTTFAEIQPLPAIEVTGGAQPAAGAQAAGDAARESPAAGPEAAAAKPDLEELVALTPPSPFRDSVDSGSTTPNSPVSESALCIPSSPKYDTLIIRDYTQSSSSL

Row | SMILES | melting point | Emax (human mGluR5) | EC50 (human mGluR5) | Emax (%) (human mGluR5) | pEC50 (human mGluR5)
1 | Cn1cccc1C(=O)N1CCc2nc(COc3ccccc3)oc2C1 [Example B84] | 78.5 °C | 53% | 257 nM |  | 
2 | N#Cc1cc(C(=O)N2CCc3nc(COc4ccccc4)oc3C2)ccc1F [Example B98] | 128.2 °C | 73% | 741 nM |  | 
3 | O=C(c1ccccc1F)N1CCc2nc(COc3ccccc3)sc2C1 [Example B5, 5-[(2-fluorophenyl)carbonyl]-2-(phenoxymethyl)-4,5,6,7-tetrahydro[1,3]thiazolo[5,4-c]pyridine] | 124.1 to 125.3 °C | 64% | 871 nM |  | 
4 | O=C(c1ccc2c(c1)OCO2)N1CCc2nc(COc3ccccc3)oc2C1 [Example B76] | 121.3 °C | 75% | 708 nM |  | 
5 | Cc1nc(C(=O)N2CCc3nc(COc4ccccc4)oc3C2)c(C)o1 [Example B86] | 104.4 °C | 53% | > 10000 nM |  | 
6 | Cc1ccc(OCc2nc3c(o2)CN(C(=O)c2ccc(F)cc2)CC3)cc1 [Example B70] | 137.2 °C | 56% | > 10000 nM |  | 
7 | N#Cc1ccc(C(=O)N2CCc3nc(COc4cccc(F)c4)oc3C2)cc1F [Example B89] | 102.9 °C | 61% | 2190 nM |  | 
8 | N#Cc1cccc(C(=O)N2CCc3nc(COc4ccccc4)oc3C2)c1 [Example B43] | 130 °C | 64.5% | 295 nM |  | 
9 | O=C(c1ccc(F)nc1)N1CCc2nc(COc3ccccc3)oc2C1 [Example B94] | 128.7 °C | 68% | 1120 nM |  | 
10 | O=C(c1ncc(F)cc1F)N1CCc2nc(COc3cccc(F)c3)oc2C1 [Example B101] | 109.8 °C | 67% | 3310 nM |  | 
11 | O=C(c1ccc2ccccc2n1)N1CCc2nc(COc3ccccc3)oc2C1 [Example B79] | 107.6 °C | 59% | 1820 nM |  | 
12 | O=C(c1cnn2ccccc12)N1CCc2nc(COc3ccccc3)oc2C1 [Example B95] | 130.8 °C | 64% | > 10000 nM |  | 
13 | CN(C)c1cccc(C(=O)N2CCc3nc(COc4ccccc4)oc3C2)c1 [Example B83] | 102.9 °C | 67% | 501 nM |  | 
14 | O=C(c1ccc(F)cc1)N1CCc2nc(COc3cccc(C(F)(F)F)c3)oc2C1 [Example B127] | 78.9 °C | 40% | > 10000 nM |  | 
15 | O=C(c1cccc(F)c1)N1CCc2nc(COc3ccccc3)oc2C1 [Example B7, 5-[(3-fluorophenyl)carbonyl]-2-(phenoxymethyl)-4,5,6,7-tetrahydro[1,3]oxazolo[5,4-c]pyridine] | 66 °C | 80% | 112 nM |  | 
16 | O=C(c1ccc(OC(F)(F)F)cc1)N1CCc2nc(COc3ccccc3)oc2C1 [Example B75] | > 300 °C | 70% | 933 nM |  | 
17 | O=C(c1cc(F)cc(F)c1)N1CCc2nc(COc3cccc(F)c3)oc2C1 [Example B30] | 70 °C | 44% | 148 nM |  | 
18 | N#Cc1ccc(C(=O)N2CCc3nc(COc4ccccc4)oc3C2)cc1 [Example B49] | 132.2 °C | 58% | 3090 nM |  | 
19 | O=C(c1cccc(F)c1)N1CCc2nc(COc3cccc(F)c3)oc2C1 [Example B27] | 74.7 °C | 76% | 186 nM |  | 
20 | O=C(c1cncc(F)c1)N1CCc2nc(COc3ccccc3)oc2C1 [Example B65] | 98.3 °C | 49% | 3720 nM |  | 
21 | O=C(c1ccc2[nH]cnc2c1)N1CCc2nc(COc3ccccc3)oc2C1 [Example B156] | 198.1 °C | 14% | > 30200 nM |  | 
22 | N#Cc1cccc(C(=O)N2CCc3nc(COc4cccc(F)c4)oc3C2)c1 [Example B85] | > 300 °C | 57% | 219 nM |  | 

Row | SMILES | melting point | Emax (human mGluR5) | EC50 (human mGluR5) | Emax (%) (human mGluR5) | pEC50 (human mGluR5)
23 | O=C(c1ccno1)N1CCc2nc(COc3ccccc3)oc2C1 [Example B88] | 92.5 °C | 53% | 1780 nM |  | 
24 | O=C(c1ccccc1)N1CCc2nc(COc3cccc(F)c3)oc2C1 [Example B26] | 204.7 °C | 80% | 251 nM |  | 
25 | O=C(N1CCc2nc(COc3ccccc3)oc2C1)C(F)(F)F [Example B34, 2-(phenoxymethyl)-5-(trifluoroacetyl)-4,5,6,7-tetrahydro[1,3]oxazolo[5,4-c]pyridine] | 71.8 °C | 10% | 891 nM |  | 
26 | Cc1oncc1C(=O)N1CCc2nc(COc3ccccc3)oc2C1 [Example B71] | 158.2 °C | 21% | 331 nM |  | 
27 | O=C(c1cncc(F)c1)N1CCc2nc(COc3cccc(F)c3)oc2C1 [Example B67] | > 300 °C | 49% | 3020 nM |  | 
28 | O=C(c1cccc2c1OCCO2)N1CCc2nc(COc3ccccc3)oc2C1 [Example B99] | 55.5 °C | 57% | 776 nM |  | 
29 | O=C(c1ccnnc1)N1CCc2nc(COc3ccccc3)oc2C1 [Example B150] | > 300 °C | 44% | > 10000 nM |  | 
30 | N#Cc1cc(F)cc(C(=O)N2CCc3nc(COc4ccccc4)oc3C2)c1 [Example B50] |  |  |  | 57% | 6.43
31 | Cc1ccccc1OCc1nc2c(o1)CN(C(=O)c1ccc(F)cc1)CC2 [Example B37] |  | 57% | 2400 nM |  | 
32 | O=C(c1ccc(F)cc1)N1CCCc2nc(COc3ccccc3)sc2C1 [Example B25] |  |  |  | 83% | 6.35
33 | O=C(c1ccc(F)cc1)N1CCc2nc(COc3ccc(O)cc3)oc2C1 [Example B35, 4-({5-[(4-fluorophenyl)carbonyl]-4,5,6,7-tetrahydro[1,3]oxazolo[5,4-c]pyridin-2-yl}methoxy)phenol] | 137.4 °C | 57% | > 10000 nM |  | 
34 | O=C(c1cccc(F)c1F)N1CCc2nc(COc3ccccc3)oc2C1 [Example B15] |  |  |  | 74% | 6.43
35 | Cc1ccc(C(=O)N2CCc3nc(COc4ccccc4)oc3C2)s1 [Example B110] |  |  |  | 57% | 6.70
36 | CC(C)(C)OC(=O)NC(C(=O)N1CCc2nc(COc3ccccc3)oc2C1)C(C)(C)C (centres unmarked) [Example B140] |  |  |  | 58% | 5.77
37 | COc1ccc(C(=O)N2CCc3nc(COc4ccccc4)oc3C2)s1 [Example B102] |  |  |  | 66% | 6.34
38 | O=C(c1n[nH]c2cccnc12)N1CCc2nc(COc3ccccc3)oc2C1 [Example B144] |  | 39% |  |  | >5
39 | O=C(Cc1ccc(F)cc1)N1CCc2nc(COc3ccccc3)oc2C1 [Example B51] |  |  |  | 61% | 5.92
40 | Cc1cc(C(=O)N2CCc3nc(COc4ccccc4)oc3C2)no1 [Example B157] |  |  |  | 45% | <5
41 | O=C(c1cnc(C(F)(F)F)nc1)N1CCc2nc(COc3ccccc3)oc2C1 [Example B118] |  |  |  | 37% | <5
42 | O=C(c1cccc(F)c1F)N1CCc2nc(COc3cccc(F)c3)oc2C1 [Example B28] |  |  |  | 72% | 6.24
43 | Cc1noc(C(=O)N2CCc3nc(COc4ccccc4)oc3C2)n1 [Example B119] |  | 22% | > 10000 nM |  | 
